The values that follow come from ChEMBL document CHEMBL1130021 (J Med Chem, 1997).

Structures can show the parent of a compound that is named as a salt.

What is called IC50 is the concentration that inhibits the measured activity by half. Low values mean inhibition by little substance, high ones a need for much substance.

The subject of the first experiment is Rattus norvegicus. Description: Percent reduction in total serum Cholesterol level at 1.0 mg/kg oral dose. The experiment is classed as functional.
Compound `Cl.Oc1ccc(-c2sc3cc(O)ccc3c2Oc2ccc(OCCN3CCCCC3)cc2)cc1` gave a Reduction of 45%.

A further experiment has as its system MCF7. Description: Inhibition of estrogen-induced proliferation in human MCF-7 breast cancer cells. The experiment is classed as functional, cell-based.
The compound `Cl.Oc1ccc(-c2sc3cc(O)ccc3c2Oc2ccc(OCCN3CCCCC3)cc2)cc1` came in with a 50% inhibitory concentration (IC50) of 0.05 nM.

In turn, `Oc1ccc(-c2sc3cc(O)ccc3c2Cc2ccc(OCCN3CCCCC3)cc2)cc1` gave an IC50 of 0.19 nM.

For the compound `Oc1ccc(-c2sc3cc(O)ccc3c2Sc2ccc(OCCN3CCCCC3)cc2)cc1`, the 50% inhibitory concentration (IC50) is 0.28 nM.

On to `Oc1ccc(-c2sc3cc(O)ccc3c2Nc2ccc(OCCN3CCCCC3)cc2)cc1`, for which the IC50 turned out to be 0.1 nM.

The compound `C[C@]12CC[C@@H]3c4ccc(O)cc4C[C@@H](CCCCCCCCC[S+]([O-])CCCC(F)(F)C(F)(F)F)[C@H]3[C@@H]1CC[C@@H]2O` (stereo partly drawn) [FULVESTRANT] showed a concentration for half-maximal inhibition (IC50) of 0.49 nM. Against the preceding compound, the IC50 is about 4.9-fold higher.

As to `O=C(c1ccc(OCCN2CCCCC2)cc1)c1c(-c2ccc(O)cc2)sc2cc(O)ccc12` [RALOXIFENE HYDROCHLORIDE], the IC50 was determined as 0.4 nM. This IC50 and that of the compound before are within 1.5-fold of each other.

For `CC/C(=C(\c1ccccc1)c1ccc(OCCN(C)C)cc1)c1ccccc1` [TAMOXIFEN], 481 nM corresponded to half-maximal inhibition (IC50).
